{"source": "patent US20060024691A1", "about": "“Novel pathways in the etiology of cancer” (Buck Institute for Age Research, priority 2004, published 2006)", "key": {"[1]": {"tested_on": "ERα Ser-167 (67 kD ERα and 52 kD ERα variant)", "format": "cell-based, human", "details": "for block of K3-induced p-Ser-167 ERα formation: MCF7 cells, co-treatment with K3", "description": "(§1) Human breast cancer cell lines MCF7 and T47D were obtained from the American Type Culture Collection (ATCC). MCF7 cells were maintained in Dulbecco's Modification of Eagle's Medium (Cellgro) supplemented with 10% fetal bovine serum (Cellgro), 1% penicillin/streptomycin (Cellgro) and 10 μg/ml insulin (Sigma). T47D cells were maintained in RPMI (Cellgro) supplemented with 10% fetal bovine serum, 1% penicillin/streptomycin and 10 μg/ml insulin. Treatment conditions for both cell lines involved plating ˜1×10^6 cells in normal media onto 10 cm dishes, attachment and growth for 24 hours followed by a change to estrogen-free culture conditions (phenol red-free DME H-16 supplemented with 10% charcoal stripped serum, 1% penicillin/streptomycin and 10 μg/ml insulin) for an additional 24 hours. Cells were then treated as indicated for 30 minutes before extract preparation. Indicated conditions involved 30 minute pretreatments.\n(§2) Following aspiration of the media and one ice cold PBS wash, cells growing on 10 cm dishes were harvested using a cell scraper and 0.7 ml of ice cold cell lyses buffer ([…], 1.5 mM MgCl2, […] KCl, 1 mM DTT, […] NaFl, 5% glycerol, 0.45% NP40 (Igepal, Sigma) and mincomplete protease inhibitors (Roche)). […] For preparation of high-salt nuclear extracts (nucleoplasm), isolated nuclei were resuspended for 20 minutes in ice cold extraction buffer (0.4 M NaCl, 25 mM Tris pH 7.5, 1 mM DTT, 20% glycerol, 10 mM NaFl and min-complete protease inhibitors (Roche)) followed by a 4° C. centrifugation at 16,000×g for 15 minutes.\n(§3) Equal amounts of protein from the various extracts were mixed with 2× SDS sample buffer (125 mM Tris pH6.8, 20% glycerol, 2% SDS, 0.28 M 2-mercaptoethanol and0.5% Bromphenol Blue), heated for 5 minutes at 90° C. and electrophoresed on NuPAGE 4-12% Bis-Tris gels (Invitrogen) using NuPAGE MOPS SDS running buffer (Invitrogen) and full range Rainbow recombinant protein molecular weight markers (Amersham Pharmacia). […] Membranes were then blocked for 30 minutes in blocking buffer (150 mM NaCl, 20 mM Tris pH 7.5, 0.3% Tween-20 and 4% Nonfat dry milk powerby weight)."}, "[2]": {"tested_on": "ERα Ser-118 (67 kD ERα and 52 kD ERα variant)", "format": "cell-based, human", "details": "for Ser-118 phosphorylation of ER induced by treatment: MCF-7/T47D cells, charcoal-stripped media, 30 min, menadione 100 μM, estradiol 10 nM, other quinones at equitoxic doses", "description": "as §1, §2, §3"}, "[3]": {"tested_on": "ERK1/ERK2", "assay": "MAPK activation: ERK1/ERK2 phosphorylation, Western blot", "format": "cell-based, human", "details": "MCF7 cells; for effect on K3 induced phospho-ERK1/2 formation (MAPK activation): co-treatment with K3", "description": "as §1\nFor preparation of high-salt nuclear extracts (nucleoplasm), isolated nuclei were resuspended for 20 minutes in ice cold extraction buffer (0.4 M NaCl, 25 mM Tris pH 7.5, 1 mM DTT, 20% glycerol, 10 mM NaFl and min-complete protease inhibitors (Roche)) followed by a 4° C. centrifugation at 16,000×g for 15 minutes.\nMembranes were then blocked for 30 minutes in blocking buffer (150 mM NaCl, 20 mM Tris pH 7.5, 0.3% Tween-20 and 4% Nonfat dry milk powerby weight)."}, "[4]": {"tested_on": "NF-κB p50", "assay": "NF-κB p50 DNA-binding (TransAM assay)", "format": "cell-based, human", "details": "ER-positive cells, 10 μM, 30 min", "description": "(§4) Quantitative p50 and p65 NFκB DNA-binding were also determined using ELISA based Trans-AMTM assays in accordance with the manufacturer's instructions (ActiveMotif; Carlsbad, Calif.). In these commercial kits, a duplexed NFκB oligonucleotide containing the same κB consensus sequence described for the EMSA assay above is attached to the surface of 96-well plates. Activated NFκB in tumor or nuclear extracts that is first bound to the attached oligonucleotide is specifically and quantitatively detected by subsequent incubation with p50 or p65 specific antibody followed by an enzyme (HRP)-linked secondary for colorimetric (OD450 nm absorbance) scoring. Standard curves to establish the linear assay range for Trans-AMTM determinations of p50 and p65 NFκB DNA-binding activities were performed using graded amounts of control (IL-1 treated) HeLa cell nuclear extracts (0.625 to 10 μg/well) and for comparison with a panel of nuclear extracts from six human breast cancer cell lines (MCF-7, T47D, BT474, MCF-7/HER2, SkBr3, MDA-231)."}, "[5]": {"tested_on": "NF-κB p65", "assay": "NF-κB p65 DNA-binding (TransAM assay)", "format": "cell-based, human", "details": "ER-positive cells, 10 μM, 30 min", "description": "as §4"}, "[6]": {"tested_on": "p50 and p65 NFκB subunits", "assay": "Immunoblot of nuclear p50 and p65 NFκB subunits in MCF-7 cells", "format": "cell-based, human", "details": "MCF-7; MG-132 25 μM, PS-341 5 μM, PDTC 100 μM, PA 50 μM", "description": "(§5) PS-341 was kindly provided by Millennium Pharmaceuticals Inc. (Cambridge, Mass.). […] For assessment of combined treatment effects on cell viability, 2×10^4 cells (MCF-7, MCF-7/HER2, BT474) grown in 24-well plates were first treated with tamoxifen (dissolved in ethanol) and/or parthenolide (dissolved in DMSO); for the combination treatment pathenolide was added 4 h before addition of tamoxifen. Cell viability was measured 18 h after tamoxifen treatment using the sulforhodamine B (SRB) assay (Skehan, et al. 1990). Briefly, cells fixed with trichloroacetic acid were stained for 30 min with 0.4% SRB dissolved in 1% acetic acid. Unbound dye was removed by four washes with 1% acetic acid, and protein-bound dye was extracted with 10 mM unbuffered Tris base [tris(hydroxymethyl)aminomethane] for determination of optical density at 564 nm.\n(§6) Fractionation of control and treated cells into cytoplasmic and nuclear extracts was performed as previously described (Dignam et al., 1983), with minor modification. Cells harvested on ice were washed twice with cold PBS, scraped and resuspended in 1.0 ml hypotonic buffer (20 mM HEPES, pH 7.0; 10 mM KCl; 1 mM MgCl2; 0.1% Triton X-100; 20% glycerol; 0.5 mM DTT) containing a cocktail of protease inhibitors (Mini CompleteTM protease inhibitors, Roche Diagnostics, Mannheim, Germany). The harvested cells were Dounce homogenized on ice, the mixture centrifuged at 3,000 rpm at 4° C. (5 min), and the cytoplasmic fraction separated from the nuclear pellet which was resuspended in elution buffer (20 mM HEPES, pH 7.0; 10 mM KCl; 1 mM MgCl2; 0.42 M NaCl; 0.1% Triton X-100; 20% glycerol; 0.5 mM DTT), supplemented with protease inhibitors. After 20 min at 4° C. the buffered mixture was centrifuged at 14,000 rpm at 4° C. (10 min) to obtain solubilized nuclear extracts which were then stored in aliquots at −80° C. after protein determination (Bradford; BioRad, Hercules, Calif.) and for subsequent NFkB DNA-binding assays.\nAntibodies against p50 NFκB, p65 NFκB, IκB, and β-actin proteins were commercially obtained (Santa Cruz Biotechnology, Santa Cruz, Calif.; and Abcam Inc., Cambridge, Mass.). […]; 4% SDS; 20% glycerol; and 10% 2-mercaptoethanol) and resolved by electrophoresis in 4-12% Bis-Tris SDS gradient gels in morpholinepropane sulfonic acid (MOPS) buffer. Separated proteins were transferred onto polyvinylidene difluoride membranes (Millipore Co., Billerica, Mass.), blocked with 5% non-fat milk in PBS containing 0.1% Tween-20, and membranes immunoblotted with the indicated antibodies in blocking solution. […]"}, "[7]": {"tested_on": "NFκB", "assay": "NFκB DNA-binding by EMSA, nuclear extracts of menadione treated MCF-7 cells", "format": "cell-based, human", "details": "30 min pretreatment: MG-132 25 μM, PS-341 5 μM, PDTC 100 μM, PA 50 μM; then menadione 100 μM 30 min", "description": "as §5, §6\nNFκB DNA-binding activity was measured by two different techniques. Analogous to previous tumor extract scoring of Sp1 DNA-binding protein (Quong et al., 2002), total specific NFκB DNA-binding protein was determined by electrophoretic morbility shift assay (EMSA) as follows. A duplexed oligonucleotide probe (Promega, Madison, Wis.) with sense strand containing the decameric κB consensus binding sequence (underlined) 5′-[…]-3′(SEQ ID NO:4) was end-labeled with [γ-P32]ATP (PerkinElmer, Boston, Mass.) using T4 polynucleotide kinase (Promega, Madison, Wis.) and purified with G-50 Sephadex Bio-Spin columns (BioRad, Hercules, Calif.). […]"}, "[8]": {"tested_on": "MCF-7 cells", "details": "5-7 days, concentrations approaching 1000 nM; cited from earlier work"}, "[9]": {"tested_on": "MCF-7/HER2 cells", "details": "5-7 days, concentrations approaching 1000 nM; cited from earlier work"}, "[10]": {"tested_on": "BT474 cells", "details": "5-7 days, concentrations approaching 1000 nM; cited from earlier work"}}, "note": "“Also recorded” adds a separate entry of the source. Like-named read-outs stand apart in the source and are kept apart here. Peptide text beside a SMILES is read from it. * marks the point of attachment. Cbz = O=C(OCc1ccccc1)*"}
{"smiles": "C[C@]12CC[C@@H]3c4ccc(O)c(O)c4CC[C@H]3[C@@H]1CCC2=O", "note": "[4-OHE, 4-hydroxyestrone]", "values": [{"measurement": "Ser-167 phosphorylation of ERα induced by treatment", "setting": "[1]; MCF7 nuclear extracts, 30 min", "value": "induced Ser-118 and Ser-167 phosphorylation of the 52 kD ERα nuclear variant"}, {"measurement": "Ser-118 phosphorylation of ER induced by treatment", "setting": "[2]", "value": "induced Ser-118 and Ser-167 phosphorylation of the 52 kD ERα nuclear variant"}, {"measurement": "ERK1/ERK2 phosphorylation induced by treatment", "setting": "[3]; 30 minutes", "value": "phosphorylating ERK1/2"}]}
{"smiles": "COC1=C(OC)C(=O)c2ccccc2C1=O", "note": "[DMNQ]", "values": [{"measurement": "Ser-118 phosphorylation of ER induced by treatment", "setting": "[2]", "value": "no Ser˜118 phosphorylation"}]}
{"smiles": "CC(C)C[C@@H](C=O)NC(=O)[C@H](CC(C)C)NC(=O)[C@H](CC(C)C)NC(=O)OCc1ccccc1", "note": "[MG-132] (Cbz-Leu-Leu-Leu-aldehyde)", "values": [{"measurement": "decrease in the DNA-binding of p50 subunit", "setting": "[4]", "value": 60, "unit": "%"}, {"measurement": "decrease in the DNA-binding of p65 subunit", "setting": "[5]", "value": 60, "unit": "%"}, {"measurement": "nuclear p50 and p65 NFκB subunit content, inhibitor pretreatment before menadione", "setting": "[6]", "value": "marked reductions"}, {"measurement": "inhibition of menadione-induced NFκB DNA-binding / activation", "setting": "[7]", "value": "complete inhibition; also recorded: completely inhibited"}]}
{"smiles": "CC(=O)N[C@@H](CS)C(=O)O", "note": "[NAC, N-acetyl cysteine]", "values": [{"measurement": "block of K3-induced p-Ser-167 ERα formation", "setting": "[1]", "value": "blocked"}, {"measurement": "block of K3-induced p-Ser-167 ERα formation", "setting": "[1]; listed as N-acetyl cysteine", "value": "effectively block"}, {"measurement": "effect on K3 induced phospho-ERK1/2 formation (MAPK activation)", "setting": "[3]", "value": "blocked; also recorded: completely block"}, {"measurement": "effect on K3 induced phospho-ERK1/2 formation (MAPK activation)", "setting": "[3]; listed as N-acetyl cysteine", "value": "without inhibiting MAPK activity"}]}
{"smiles": "S=C(S)N1CCCC1", "note": "[PDTC, pyrrolidine dithiocarbamate]", "values": [{"measurement": "nuclear p50 and p65 NFκB subunit content, inhibitor pretreatment before menadione", "setting": "[6]", "value": "marked reductions"}, {"measurement": "inhibition of menadione-induced NFκB DNA-binding / activation", "setting": "[7]", "value": "complete inhibition"}]}
{"smiles": "CC(C)C[C@H](NC(=O)[C@H](Cc1ccccc1)NC(=O)c1cnccn1)B(O)O", "note": "[PS-341]", "values": [{"measurement": "nuclear p50 and p65 NFκB subunit content, inhibitor pretreatment before menadione", "setting": "[6]", "value": "marked reductions"}, {"measurement": "inhibition of menadione-induced NFκB DNA-binding / activation", "setting": "[7]", "value": "complete inhibition; also recorded: completely inhibited"}]}
{"smiles": "C[S+]([O-])c1ccc(-c2nc(-c3ccncc3)c(-c3ccc(F)cc3)[nH]2)cc1", "note": "(stereo not drawn) [SB203580]", "values": [{"measurement": "block of K3-induced p-Ser-167 ERα formation", "setting": "[1]", "value": "no affect"}]}
{"smiles": "N#CC(=C(/N)Sc1ccccc1N)/C(C#N)=C(\\N)Sc1ccccc1N", "note": "[U0126]", "values": [{"measurement": "effect on K3 induced phospho-ERK1/2 formation (MAPK activation)", "setting": "[3]", "value": "only minimal activation detectable"}]}
{"smiles": "O=c1oc2ccccc2c(O)c1Cc1c(O)c2ccccc2oc1=O", "note": "[dicumarol]", "values": [{"measurement": "block of K3-induced p-Ser-167 ERα formation", "setting": "[1]", "value": "virtually complete inhibition; also recorded: effectively block"}, {"measurement": "inhibition of K3-induced p-Ser-118 ERα", "setting": "[2]; MCF7 cells, dicumarol added concurrently with K3", "value": "at least 75%"}]}
{"smiles": "O=C1C=CC(=O)C=C1", "note": "[p-benzoquinone]", "values": [{"measurement": "Ser-118 phosphorylation of ER induced by treatment", "setting": "[2]", "value": "no Ser˜118 phosphorylation"}]}
{"smiles": "CC/C(=C(\\c1ccccc1)c1ccc(OCCN(C)C)cc1)c1ccccc1", "note": "[tamoxifen, [Z]-1-[p-dimethylaminoethoxyphenyl]-1,2-diphenyl-1 butene]", "values": [{"measurement": "reduction in viable cell number", "setting": "[8]", "value": "~50", "unit": "%"}, {"measurement": "cellular reductions (viable cell number)", "setting": "[9]", "value": "~25", "unit": "%"}, {"measurement": "cellular reductions (viable cell number)", "setting": "[10]", "value": "~25", "unit": "%"}]}
